{
  "source": "paper PMC10299916",
  "about": "“A multi-enzyme machine polymerizes the Haemophilus influenzae type b capsule” (Nature Chemical Biology, 2023)",
  "key": {"PrsA": {"molecular_target": "T1, PrsA (Haemophilus influenzae, UniProt P44328)", "T1 construct": "gene prs; recombinant, E. coli M15; cloned in MBP-S3N10-...-His6 vector", "assay": "HPLC-AEC", "format": "biochemical", "conditions": "Mg2+, pH 8.0, 37 °C"}, "Bcs3": {"molecular_target": "T2, Bcs3 (Haemophilus influenzae, UniProt Q2ERG0)", "T2 construct": "full length, 1,215 residues; N-terminal MBP-S3N10 and C-terminal His6 fusion; E. coli M15", "assay": "HPLC-AEC and Alcian blue PAGE of polymer formation", "format": "biochemical", "conditions": "Mg2+, pH 8.0, 37 °C"}, "Bcs1": {"molecular_target": "T3, Bcs1 (Haemophilus influenzae, UniProt Q48230)", "T3 construct": "recombinant, E. coli M15; cloned in MBP-S3N10-...-His6 vector", "assay": "HPLC-AEC", "format": "biochemical", "conditions": "5 mM, CTP, Mg2+, pH 8.0, 37 °C"}, "[1]": {"molecular_target": "Bcs3 crystallization construct MBP-Bcs3_(2–1162)-His6 after PreScission digest (Bcs3-His6) (Haemophilus influenzae serotype b (strain ATCC 10211)) (UniProt Q2ERG0)", "assay": "crystal structure"}},
  "data": [
    {"compound": "Nc1ncnc2c1ncn2[C@@H]1O[C@H](COP(=O)(O)OP(=O)(O)OP(=O)(O)O)[C@@H](O)[C@H]1O", "note": "[ATP]", "values": [
      {"measurement": "HPLC-AEC", "setting": "PrsA; ribose-5-phosphate", "result": "(c) PrsA using ATP, CTP or UTP as donor substrate"}
    ]},
    {"compound": "Nc1ccn([C@@H]2O[C@H](COP(=O)(O)OP(=O)(O)OC[C@@H](O)[C@@H](O)[C@@H](O)CO)[C@@H](O)[C@H]2O)c(=O)n1", "note": "[CDP-ribitol]", "values": [
      {"measurement": "HPLC-AEC and Alcian blue PAGE of polymer formation", "setting": "Bcs3; generated in situ by RpiA and Bcs1, with PRPP, CroT donor", "result": "CDP-ribitol was only used up in the presence of PRPP, with concomitant production of CMP"}
    ]},
    {"compound": "O=P(O)(O)OC[C@H]1OC(O)[C@H](O)[C@@H]1O", "note": "(stereo partly drawn) [D-ribose-5-phosphate]", "values": [
      {"measurement": "HPLC-AEC", "setting": "PrsA; ATP", "result": "The reaction cascade (e, f) was started with (e) Rib or (f) Rib-5P"}
    ]},
    {"compound": "NC(=O)C1=CN([C@@H]2O[C@H](COP(=O)(O)OP(=O)(O)OC[C@H]3O[C@@H](n4cnc5c(N)ncnc54)[C@H](OP(=O)(O)O)[C@@H]3O)[C@@H](O)[C@H]2O)C=CC1", "note": "[NADPH]", "values": [
      {"measurement": "HPLC-AEC", "setting": "Bcs1; ribulose-5-phosphate", "result": "presence of Bcs1 in a reaction containing ribulose-5-phosphate led to the consumption of NADPH"}
    ]},
    {"compound": "O=P(O)(O)OC[C@H]1O[C@H](OP(=O)(O)OP(=O)(O)O)[C@H](O)[C@@H]1O", "note": "[PRPP, 5-phospho-α-D-ribose-1-diphosphate]", "values": [
      {"measurement": "HPLC-AEC and Alcian blue PAGE of polymer formation", "setting": "Bcs3; 5 mM, CDP-ribitol generated in situ by RpiA and Bcs1, CriT donor", "result": "Thus, we concluded that PRPP is the donor substrate for Bcs3."}
    ]},
    {"compound": "O=C(CO)[C@H](O)[C@H](O)COP(=O)(O)O", "note": "[ribulose-5-phosphate]", "values": [
      {"measurement": "HPLC-AEC", "setting": "Bcs1; NADPH", "result": "presence of Bcs1 in a reaction containing ribulose-5-phosphate led to the consumption of NADPH"}
    ]},
    {"compound": "Bcs3 crystallization construct MBP-Bcs3_(2–1162)-His6 after PreScission digest (Bcs3-His6) (from UniProt Q2ERG0 2-1162) (enzyme)", "values": [
      {"measurement": "stoichiometry N", "setting": "[1]", "result": 2}
    ]}
  ]
}
